The values that follow come from patent publication US11033535B2, “Oxadiazoles and thiadiazoles as TGF-β inhibitors” (Southern Research Institute, priority 2017, dated 2021).

This assay concerns the target (Homo sapiens, UniProt P07996). The assay is described as follows: Secondary Assay, inhibitory activity of thiadiazole and oxadiazole analogs as TGF-beta inhibitors. It is filed as biochemical. Conditions: Table I. The procedure: A summary of the inhibitory activity of representative thiadiazole analogs (Tables i and ii) and oxadiazole analogs (Table ii) is shown below.
For initial screening, an ELISA-based screening assay was used in which purified human platelet TSP-1 was incubated with compounds and then incubated with recombinant latent TGF-β1 (purchased from R&D Systems). Activity is measured in a commercially available ELISA which detects only active TGF-β (R &D Systems). Activity in the presence of compounds is compared to activity in TSP-1+latent TGF-β samples without inhibitory compounds (Lu et al. (2016) Am J Pathol 186:678-690).
To specifically assess activity of compounds in liver cell specific assays, two different assays were used. In the first, human hepatic stellate cells were incubated overnight in low serum media to condition the media with secreted latent TGF-β. Purified TSP1 either pre-incubated with compounds or not will be added to cultures and then conditioned media harvested to assess TGF-β biological activity using the R&D Systems ELISA as above. Hepatic stellate cells will be purchased from commercial sources. Although hepatic stellate cells are the primary drivers of liver fibrosis, conditions which drive liver fibrosis can induce hepatocyte TSP-1 expression which can then have paracrine effects on controlling TGF-β activation in hepatic stellate cells. Furthermore, TGF-β can negatively impact hepatocyte regeneration following injury. Therefore, the ability of compounds to block TSP-1 activation of latent TGF-β will also be assessed in cultured primary human hepatocytes following the protocol described for the hepatic stellate cells. Similar approaches have successfully been used to screen compounds which inhibit human myeloma cell derived latent TGF-β activation by TSP-1 (Lu et al. (2016) Am J Pathol 186:678-690).

(Homo sapiens, UniProt P07996), sequence (P07996 whole entry): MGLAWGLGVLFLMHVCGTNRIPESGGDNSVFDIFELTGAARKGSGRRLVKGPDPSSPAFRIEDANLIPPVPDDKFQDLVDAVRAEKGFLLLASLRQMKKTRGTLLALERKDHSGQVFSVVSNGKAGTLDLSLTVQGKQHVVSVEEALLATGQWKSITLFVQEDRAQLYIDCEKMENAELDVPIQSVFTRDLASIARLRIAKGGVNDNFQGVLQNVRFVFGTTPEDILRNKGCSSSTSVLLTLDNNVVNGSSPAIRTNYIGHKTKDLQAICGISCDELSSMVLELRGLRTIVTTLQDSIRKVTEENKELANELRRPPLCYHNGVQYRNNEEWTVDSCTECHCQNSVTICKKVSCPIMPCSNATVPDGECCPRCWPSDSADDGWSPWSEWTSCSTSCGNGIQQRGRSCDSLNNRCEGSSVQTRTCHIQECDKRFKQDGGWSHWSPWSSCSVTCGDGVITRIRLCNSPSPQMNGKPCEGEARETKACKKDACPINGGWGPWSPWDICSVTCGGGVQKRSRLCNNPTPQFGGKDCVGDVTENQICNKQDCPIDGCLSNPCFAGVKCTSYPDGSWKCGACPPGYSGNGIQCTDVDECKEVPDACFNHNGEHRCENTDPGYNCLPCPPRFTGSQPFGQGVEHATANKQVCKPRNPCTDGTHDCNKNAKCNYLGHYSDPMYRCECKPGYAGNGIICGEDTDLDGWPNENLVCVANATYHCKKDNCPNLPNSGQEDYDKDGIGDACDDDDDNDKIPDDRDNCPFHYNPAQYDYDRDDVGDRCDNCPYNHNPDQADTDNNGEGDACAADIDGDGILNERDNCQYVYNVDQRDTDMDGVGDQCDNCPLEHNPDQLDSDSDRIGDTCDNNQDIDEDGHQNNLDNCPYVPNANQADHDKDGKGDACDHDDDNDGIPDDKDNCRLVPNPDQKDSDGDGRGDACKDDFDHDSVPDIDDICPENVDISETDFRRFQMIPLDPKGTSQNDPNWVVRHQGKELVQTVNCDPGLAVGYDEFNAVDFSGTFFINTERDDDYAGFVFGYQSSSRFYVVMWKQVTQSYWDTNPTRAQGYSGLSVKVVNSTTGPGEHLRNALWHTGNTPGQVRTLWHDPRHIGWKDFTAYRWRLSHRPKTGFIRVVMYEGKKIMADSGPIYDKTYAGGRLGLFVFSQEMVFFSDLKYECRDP

One may read the IC50 as the concentration that gives 50% inhibition. High values mean lower potency, low ones higher potency. The molecule `CC(=O)N[C@@H](Cc1ccc(CN(C)C)cc1)c1nnc(-c2cccc(OC(F)(F)F)c2)s1` [Compound 42320, N-(2-(4-((dimethylamino)methyl)phenyl)-1-(5-(3-(trifluoromethoxy)phenyl)-1,3,4-thiadiazol-2-yl)ethyl)acetamide] registered a half-maximal inhibitory concentration (IC50) of 2 nM.

Turning to `CNCc1ccc(C[C@H](NC(C)=O)c2nnc(-c3cccc(OC(F)(F)F)c3)s2)cc1` [Compound 42140, N-(2-(4-((methylamino)methyl)phenyl)-1-(5-(3-(trifluoromethoxy)phenyl)-1,3,4-thiadiazol-2-yl)ethyl)acetamide], half-maximal inhibition (IC50) required 51 nM.
